Data published in the kinase profiling compilation of Christmann-Franck et al. (2016).

How the values were obtained:
Assay in all cases: KINOMEscan competition binding
Details in all cases: compound 2.0 µM
[1] = target: TLK2 (human) (UniProt Q86UE8)
[2] = target: ACVR1B (human) (UniProt P36896)
[3] = target: RIOK1 (human) (UniProt Q9BRS2)
[4] = tested on: MET (human), P08581 [Y1235D]
[5] = target: PRKG1 (human) (UniProt Q13976)
[6] = target: RPS6KA1 KD2 (human) (UniProt Q15418)
[7] = target: PIP4K2C (human) (UniProt Q8TBX8)
[8] = target: BMPR2 (human) (UniProt Q13873)
[9] = target: MYO3A (human) (UniProt Q8NEV4)
[10] = target: EPHA6 (human) (UniProt Q9UF33)
[11] = target: MAPK13 (human) (UniProt O15264)
[12] = tested on: RET (human), P07949 [M918T]
[13] = target: TNK2 (human) (UniProt Q07912)
[14] = target: PRKACB (human) (UniProt P22694)
[15] = tested on: PIK3CA (human), P42336 [H1047Y]
[16] = target: PIK3C2B (human) (UniProt O00750)
[17] = target: TYK2 JH2 pseudokinase (human) (UniProt P29597)
[18] = target: PRKD1 (human) (UniProt Q15139)
[19] = tested on: KIT (human), P10721 [V559D/V654A]
[20] = target: FGFR2 (human) (UniProt P21802)
[21] = target: MARK3 (human) (UniProt P27448)
[22] = target: ERN1 (human) (UniProt O75460)
[23] = target: TBK1 (human) (UniProt Q9UHD2)
[24] = target: SRPK1 (human) (UniProt Q96SB4)
[25] = target: MINK1 (human) (UniProt Q8N4C8)
[26] = target: TNNI3K (human) (UniProt Q59H18)
[27] = tested on: PIK3CA (human), P42336 [Q546K]
[28] = tested on: KIT (human), P10721 [D816H]
[29] = target: MET (human) (UniProt P08581)
[30] = target: MAPKAPK2 (human) (UniProt P49137)
[31] = target: BLK (human) (UniProt P51451)
[32] = target: ERBB2 (human) (UniProt P04626)
[33] = target: ACVRL1 (human) (UniProt P37023)
[34] = target: AURKC (human) (UniProt Q9UQB9)
[35] = target: PAK4 (human) (UniProt O96013)
[36] = target: FES (human) (UniProt P07332)
[37] = target: INSR (human) (UniProt P06213)
[38] = tested on: ABL1 (human), P00519 [Y253F]
[39] = target: BRSK1 (human) (UniProt Q8TDC3)
[40] = tested on: PIK3CA (human), P42336 [E542K]
[41] = tested on: FLT3 (human), P36888 [R834Q]
[42] = target: IKBKE (human) (UniProt Q14164)
[43] = target: EPHA2 (human) (UniProt P29317)

IKBKE (human), sequence (Q14164 whole entry, looked up): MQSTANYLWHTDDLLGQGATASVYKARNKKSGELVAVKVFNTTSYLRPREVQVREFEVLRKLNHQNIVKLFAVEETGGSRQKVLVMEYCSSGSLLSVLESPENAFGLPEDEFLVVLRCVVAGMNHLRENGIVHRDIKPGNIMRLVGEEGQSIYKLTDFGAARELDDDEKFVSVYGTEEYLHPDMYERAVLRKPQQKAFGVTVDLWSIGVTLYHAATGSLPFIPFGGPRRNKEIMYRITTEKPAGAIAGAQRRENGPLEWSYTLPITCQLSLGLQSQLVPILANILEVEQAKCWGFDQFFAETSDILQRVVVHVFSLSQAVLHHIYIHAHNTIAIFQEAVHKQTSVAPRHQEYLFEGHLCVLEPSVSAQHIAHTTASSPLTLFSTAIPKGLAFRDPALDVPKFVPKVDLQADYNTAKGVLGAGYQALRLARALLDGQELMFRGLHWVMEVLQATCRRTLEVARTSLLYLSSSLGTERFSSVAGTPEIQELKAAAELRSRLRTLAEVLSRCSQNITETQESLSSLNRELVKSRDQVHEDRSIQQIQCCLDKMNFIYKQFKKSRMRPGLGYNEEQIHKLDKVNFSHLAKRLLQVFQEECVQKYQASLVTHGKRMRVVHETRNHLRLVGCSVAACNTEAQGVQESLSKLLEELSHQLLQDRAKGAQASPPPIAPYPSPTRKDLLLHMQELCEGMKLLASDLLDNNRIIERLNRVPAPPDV
BRSK1 (human), sequence (Q8TDC3 whole entry, looked up): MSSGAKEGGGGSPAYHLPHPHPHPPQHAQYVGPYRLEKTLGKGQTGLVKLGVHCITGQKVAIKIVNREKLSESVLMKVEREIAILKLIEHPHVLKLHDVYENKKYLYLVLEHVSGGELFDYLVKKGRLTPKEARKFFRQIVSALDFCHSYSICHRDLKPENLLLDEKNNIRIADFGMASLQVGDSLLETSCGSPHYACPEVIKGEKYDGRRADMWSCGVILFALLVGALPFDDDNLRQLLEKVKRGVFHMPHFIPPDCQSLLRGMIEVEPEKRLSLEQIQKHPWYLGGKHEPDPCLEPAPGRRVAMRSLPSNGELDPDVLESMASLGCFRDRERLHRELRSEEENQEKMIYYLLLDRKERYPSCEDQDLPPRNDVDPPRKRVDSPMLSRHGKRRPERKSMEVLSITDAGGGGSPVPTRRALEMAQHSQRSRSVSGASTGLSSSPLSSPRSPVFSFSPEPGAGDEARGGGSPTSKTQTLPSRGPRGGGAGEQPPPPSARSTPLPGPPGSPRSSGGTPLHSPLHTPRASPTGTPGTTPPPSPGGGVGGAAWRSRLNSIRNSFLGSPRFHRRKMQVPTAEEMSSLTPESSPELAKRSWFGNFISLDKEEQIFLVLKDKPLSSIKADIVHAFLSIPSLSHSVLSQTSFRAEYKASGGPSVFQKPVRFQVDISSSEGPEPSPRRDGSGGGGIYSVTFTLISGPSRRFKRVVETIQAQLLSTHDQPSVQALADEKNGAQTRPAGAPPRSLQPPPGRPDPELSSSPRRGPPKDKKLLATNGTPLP
BLK (human), sequence (P51451 whole entry, looked up): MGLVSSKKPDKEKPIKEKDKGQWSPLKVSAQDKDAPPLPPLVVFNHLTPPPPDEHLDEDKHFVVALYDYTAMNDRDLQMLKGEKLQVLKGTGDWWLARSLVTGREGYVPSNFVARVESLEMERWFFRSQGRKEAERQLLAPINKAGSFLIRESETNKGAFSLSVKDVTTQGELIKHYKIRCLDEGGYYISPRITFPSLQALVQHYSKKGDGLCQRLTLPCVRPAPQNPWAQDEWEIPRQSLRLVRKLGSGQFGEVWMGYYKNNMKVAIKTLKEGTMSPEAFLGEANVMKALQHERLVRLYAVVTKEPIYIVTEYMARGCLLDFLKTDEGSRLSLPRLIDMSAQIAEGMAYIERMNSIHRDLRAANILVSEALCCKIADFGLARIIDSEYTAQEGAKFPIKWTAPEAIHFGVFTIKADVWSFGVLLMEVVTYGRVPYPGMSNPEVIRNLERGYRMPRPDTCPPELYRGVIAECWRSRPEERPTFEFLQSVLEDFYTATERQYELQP
PRKG1 (human), sequence (Q13976 whole entry, looked up): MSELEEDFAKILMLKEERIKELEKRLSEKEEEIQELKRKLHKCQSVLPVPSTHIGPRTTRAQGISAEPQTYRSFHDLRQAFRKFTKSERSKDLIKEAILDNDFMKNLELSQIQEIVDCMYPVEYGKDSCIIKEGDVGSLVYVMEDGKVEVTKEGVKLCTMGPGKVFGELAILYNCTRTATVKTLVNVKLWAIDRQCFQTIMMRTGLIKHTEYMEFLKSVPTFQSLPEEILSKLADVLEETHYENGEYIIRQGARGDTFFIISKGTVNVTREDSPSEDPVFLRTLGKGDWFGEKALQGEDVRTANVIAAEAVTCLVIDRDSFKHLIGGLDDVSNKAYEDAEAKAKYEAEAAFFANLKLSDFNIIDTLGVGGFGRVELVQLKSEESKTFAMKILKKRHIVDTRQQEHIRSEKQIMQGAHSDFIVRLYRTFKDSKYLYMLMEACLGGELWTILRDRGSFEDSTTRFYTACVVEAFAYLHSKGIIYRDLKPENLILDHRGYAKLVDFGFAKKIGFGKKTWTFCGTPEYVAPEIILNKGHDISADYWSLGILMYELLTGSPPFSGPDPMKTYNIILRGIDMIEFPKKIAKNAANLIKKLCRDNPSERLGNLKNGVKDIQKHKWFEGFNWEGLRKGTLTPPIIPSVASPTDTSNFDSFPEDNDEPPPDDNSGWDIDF
MINK1 (human), sequence (Q8N4C8 whole entry, looked up): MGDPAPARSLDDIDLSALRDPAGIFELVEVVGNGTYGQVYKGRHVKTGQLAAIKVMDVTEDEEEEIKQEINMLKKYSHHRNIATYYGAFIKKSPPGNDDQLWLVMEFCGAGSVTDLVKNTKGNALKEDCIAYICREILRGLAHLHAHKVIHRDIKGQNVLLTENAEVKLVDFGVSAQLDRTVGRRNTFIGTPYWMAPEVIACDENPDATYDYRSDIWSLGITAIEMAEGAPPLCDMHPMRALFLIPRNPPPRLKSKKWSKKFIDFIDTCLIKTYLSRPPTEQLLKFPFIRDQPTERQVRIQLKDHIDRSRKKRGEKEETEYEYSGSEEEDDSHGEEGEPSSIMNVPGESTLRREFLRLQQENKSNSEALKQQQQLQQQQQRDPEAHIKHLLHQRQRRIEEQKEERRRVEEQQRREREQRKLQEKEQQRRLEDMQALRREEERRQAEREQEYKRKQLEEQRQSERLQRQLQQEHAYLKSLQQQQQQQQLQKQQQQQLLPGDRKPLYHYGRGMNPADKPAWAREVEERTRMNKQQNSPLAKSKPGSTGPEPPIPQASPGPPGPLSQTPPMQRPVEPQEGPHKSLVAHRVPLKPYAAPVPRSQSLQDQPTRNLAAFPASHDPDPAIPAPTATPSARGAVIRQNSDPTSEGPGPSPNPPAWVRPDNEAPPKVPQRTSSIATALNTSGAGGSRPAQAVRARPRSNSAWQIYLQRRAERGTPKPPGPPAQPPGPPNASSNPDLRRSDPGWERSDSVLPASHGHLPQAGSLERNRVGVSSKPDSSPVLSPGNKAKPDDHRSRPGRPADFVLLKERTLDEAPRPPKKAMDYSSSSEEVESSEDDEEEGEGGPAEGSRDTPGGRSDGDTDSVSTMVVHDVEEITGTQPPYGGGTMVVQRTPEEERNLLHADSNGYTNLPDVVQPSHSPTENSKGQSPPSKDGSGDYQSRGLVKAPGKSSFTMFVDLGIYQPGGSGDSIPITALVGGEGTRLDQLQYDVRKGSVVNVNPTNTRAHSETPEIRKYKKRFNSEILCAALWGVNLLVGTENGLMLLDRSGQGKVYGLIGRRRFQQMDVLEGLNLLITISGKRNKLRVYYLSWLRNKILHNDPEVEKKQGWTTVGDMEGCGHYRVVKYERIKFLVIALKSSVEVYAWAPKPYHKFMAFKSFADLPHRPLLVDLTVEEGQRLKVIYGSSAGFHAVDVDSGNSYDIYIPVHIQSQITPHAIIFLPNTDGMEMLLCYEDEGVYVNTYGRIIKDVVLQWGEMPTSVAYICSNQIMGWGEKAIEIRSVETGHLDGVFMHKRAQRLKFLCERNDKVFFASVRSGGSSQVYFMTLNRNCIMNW
KIT (human), P10721 [D816H], sequence (P10721 whole entry D816H, looked up): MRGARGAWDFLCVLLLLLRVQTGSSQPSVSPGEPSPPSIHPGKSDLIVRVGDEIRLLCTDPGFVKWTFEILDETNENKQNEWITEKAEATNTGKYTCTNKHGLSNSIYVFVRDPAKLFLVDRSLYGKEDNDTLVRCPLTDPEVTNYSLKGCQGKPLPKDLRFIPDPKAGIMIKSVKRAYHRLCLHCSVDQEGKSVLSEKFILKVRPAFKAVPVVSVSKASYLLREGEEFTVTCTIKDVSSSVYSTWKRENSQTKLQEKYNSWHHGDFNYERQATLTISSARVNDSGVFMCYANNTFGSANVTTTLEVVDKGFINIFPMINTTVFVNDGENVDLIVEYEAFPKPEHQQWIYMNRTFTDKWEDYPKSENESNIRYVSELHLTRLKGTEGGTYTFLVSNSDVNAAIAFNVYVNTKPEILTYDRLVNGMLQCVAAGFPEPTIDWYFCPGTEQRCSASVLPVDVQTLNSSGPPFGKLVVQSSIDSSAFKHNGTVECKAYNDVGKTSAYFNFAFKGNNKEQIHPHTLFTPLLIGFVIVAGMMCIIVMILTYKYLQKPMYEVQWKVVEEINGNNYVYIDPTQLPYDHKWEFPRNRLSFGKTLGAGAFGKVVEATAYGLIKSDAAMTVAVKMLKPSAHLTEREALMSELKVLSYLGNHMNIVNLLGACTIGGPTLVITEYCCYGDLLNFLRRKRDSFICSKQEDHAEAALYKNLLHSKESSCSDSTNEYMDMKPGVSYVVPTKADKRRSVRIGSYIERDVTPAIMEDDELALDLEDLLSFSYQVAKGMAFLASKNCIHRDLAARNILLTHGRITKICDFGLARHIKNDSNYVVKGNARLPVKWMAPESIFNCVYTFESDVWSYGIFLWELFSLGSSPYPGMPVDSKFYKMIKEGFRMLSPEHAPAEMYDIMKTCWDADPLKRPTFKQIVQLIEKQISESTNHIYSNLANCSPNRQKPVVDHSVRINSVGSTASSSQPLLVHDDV
KIT (human), P10721 [V559D/V654A], sequence (P10721 whole entry V559D/V654A, looked up): as the sequence (P10721 whole entry D816H, looked up) above, with V559D, V654A, H816D counted along it

Q: How did the kinase still bound, per cent of control [1] turn out when `N#Cc1ccc2ncnc(NCCc3ccc4ccccc4c3)c2c1` was run?
A: Its kinase still bound, per cent of control is 94%.

Q: What about the kinase still bound, per cent of control [2] of the same molecule?
A: The kinase still bound, per cent of control was 100%.

Q: And the kinase still bound, per cent of control [3]?
A: Its kinase still bound, per cent of control is 71%.

Q: And the kinase still bound, per cent of control [4]?
A: Its kinase still bound, per cent of control is 100%.

Q: What about the kinase still bound, per cent of control [5] of the same molecule?
A: The kinase still bound, per cent of control was 85%.

Q: And the kinase still bound, per cent of control [6]?
A: The kinase still bound, per cent of control was 88%.

Q: And the kinase still bound, per cent of control [7]?
A: The kinase still bound, per cent of control was 91%.

Q: What about the kinase still bound, per cent of control [8] of the same molecule?
A: The kinase still bound, per cent of control was 100%.

Q: And the kinase still bound, per cent of control [9]?
A: The kinase still bound, per cent of control was 100%.

Q: What about the kinase still bound, per cent of control [10] of the same molecule?
A: The kinase still bound, per cent of control was 100%.

Q: And the kinase still bound, per cent of control [11]?
A: Its kinase still bound, per cent of control is 100%.

Q: What about the kinase still bound, per cent of control [12] of the same molecule?
A: The kinase still bound, per cent of control was 89%.

Q: And the kinase still bound, per cent of control [13]?
A: Its kinase still bound, per cent of control is 97%.

Q: And the kinase still bound, per cent of control [14]?
A: The kinase still bound, per cent of control was 100%.

Q: What about the kinase still bound, per cent of control [15] of the same molecule?
A: Its kinase still bound, per cent of control is 78%.

Q: And the kinase still bound, per cent of control [16]?
A: Its kinase still bound, per cent of control is 85%.

Q: And the kinase still bound, per cent of control [17]?
A: The kinase still bound, per cent of control was 92%.

Q: And the kinase still bound, per cent of control [18]?
A: Its kinase still bound, per cent of control is 100%.

Q: And the kinase still bound, per cent of control [19]?
A: The kinase still bound, per cent of control was 100%.

Q: And the kinase still bound, per cent of control [20]?
A: The kinase still bound, per cent of control was 90%.

Q: What about the kinase still bound, per cent of control [21] of the same molecule?
A: Its kinase still bound, per cent of control is 95%.

Q: And the kinase still bound, per cent of control [22]?
A: The kinase still bound, per cent of control was 100%.

Q: What about the kinase still bound, per cent of control [23] of the same molecule?
A: Its kinase still bound, per cent of control is 100%.

Q: What about the kinase still bound, per cent of control [24] of the same molecule?
A: The kinase still bound, per cent of control was 100%.

Q: And the kinase still bound, per cent of control [25]?
A: Its kinase still bound, per cent of control is 100%.

Q: What about the kinase still bound, per cent of control [26] of the same molecule?
A: Its kinase still bound, per cent of control is 100%.

Q: What about the kinase still bound, per cent of control [27] of the same molecule?
A: The kinase still bound, per cent of control was 85%.

Q: What about the kinase still bound, per cent of control [28] of the same molecule?
A: The kinase still bound, per cent of control was 100%.

Q: And the kinase still bound, per cent of control [29]?
A: The kinase still bound, per cent of control was 100%.

Q: What about the kinase still bound, per cent of control [30] of the same molecule?
A: The kinase still bound, per cent of control was 100%.

Q: And the kinase still bound, per cent of control [31]?
A: The kinase still bound, per cent of control was 65%.

Q: And the kinase still bound, per cent of control [32]?
A: Its kinase still bound, per cent of control is 94%.

Q: And the kinase still bound, per cent of control [33]?
A: Its kinase still bound, per cent of control is 100%.

Q: What about the kinase still bound, per cent of control [34] of the same molecule?
A: Its kinase still bound, per cent of control is 84%.

Q: What about the kinase still bound, per cent of control [35] of the same molecule?
A: The kinase still bound, per cent of control was 91%.

Q: What about the kinase still bound, per cent of control [36] of the same molecule?
A: Its kinase still bound, per cent of control is 100%.

Q: What about the kinase still bound, per cent of control [37] of the same molecule?
A: The kinase still bound, per cent of control was 100%.

Q: What about the kinase still bound, per cent of control [38] of the same molecule?
A: The kinase still bound, per cent of control was 100%.

Q: What about the kinase still bound, per cent of control [39] of the same molecule?
A: The kinase still bound, per cent of control was 100%.

Q: And the kinase still bound, per cent of control [40]?
A: Its kinase still bound, per cent of control is 84%.

Q: What about the kinase still bound, per cent of control [41] of the same molecule?
A: The kinase still bound, per cent of control was 100%.

Q: And the kinase still bound, per cent of control [42]?
A: The kinase still bound, per cent of control was 100%.

Q: And the kinase still bound, per cent of control [43]?
A: Its kinase still bound, per cent of control is 100%.
